Data as given in paper PMC7437366 (Biochemistry, 2010).
Read-outs that look alike come from different tables or passages of the source.

Key:
[1] = tested on: AKHR-mediated ERK1/2 activation; format: cell-based, Bombyx; conditions: for Dose dependence of PKC inhibitor effect on ERK1/2 activation: inhibitor 0.03 μM to 3 μM, three independent experiments
[2] = tested on: magnolol-induced lipolysis; conditions: MEK inhibitor; ref [57]; cited from earlier work
fat body of Bombyx = assay: Lipolysis in the fat body of Bombyx; conditions: MEK inhibitor treatment; preliminary experiment, data not shown
[3] = tested on: adipokinetic effect of AKH; conditions: M. sexta, in vivo; ref [44]; cited from earlier work

SMILES: COc1cc2ncnc(Nc3cccc(Cl)c3)c2cc1OC [AG1478]
- Effect on AKH-induced ERK1/2 activation, EGFR inhibitor ([1]; AG1478 1 μM, 1 h, 37°C, AKH 5 nM, 5 min, Fig. 9, S2): no effect on ERK1/2 activation

SMILES: CCCCCCCCCCCCCCCCCCOCC(COP(=O)([O-])OCC[N+](C)(C)C)OC (stereo not drawn) [ET-18-OCH3]
- Effect of PLC inhibitor on ERK1/2 activation ([1]; ET-18-OCH3 100 μM, AKH 5 nM, S1): could not block the activation of ERK1/2

SMILES: O=C(NCCN1CCC(n2c(=O)[nH]c3ccccc32)CC1)c1cc2cc(F)ccc2[nH]1 [FIPI]
- Effect of PLD inhibitor on ERK1/2 activation ([1]; FIPI 1 μM, 1 hour, AKH 5 nM, 5 min, Fig. 4B, S1): could not block the activation of ERK1/2

SMILES: CN(C)CCCn1cc(C2=C(c3c[nH]c4ccccc34)C(=O)NC2=O)c2ccccc21 [GF109203X]
- Dose dependence of PKC inhibitor effect on ERK1/2 activation ([1]; 1 hour, AKH 5 nM, 5 min): decrease in the activation of ERK1/2 stimulated by 5 nM AKH in a dose-dependent manner

SMILES: CNC(=O)[C@H](Cc1c[nH]c2ccccc12)NC(=O)[C@@H](CC(=O)NO)CC(C)C [GM6001]
- Effect on AKH-induced ERK1/2 activation, MMP inhibitor ([1]; GM6001 5 μM, 1 h, 37°C, AKH 5 nM, 5 min, Fig. 9, S2): no effect on ERK1/2 activation

SMILES: COc1ccc2c(c1)c(C1=C(c3c[nH]c4ccccc34)C(=O)NC1=O)cn2CCCN(C)C [Go6983]
- Effect on AKH-induced ERK1/2 phosphorylation, PKC inhibitor ([1]; Go6983 3 μM, 1 h, 37°C, AKH 5 nM, 5 min, Fig. 9): significant decrease of AKH-induced phosphorylation of ERK1/2
- Dose dependence of PKC inhibitor effect on ERK1/2 activation ([1]; 1 hour, AKH 5 nM, 5 min): decrease in the activation of ERK1/2 stimulated by 5 nM AKH in a dose-dependent manner

SMILES: O=S(=O)(NCCNC/C=C/c1ccc(Br)cc1)c1cccc2cnccc12 [H89]
- Dose dependence of inhibition of ERK1/2, PKA inhibitor ([1]; H89 1 μM to 20 μM, 1 hour, AKH 5 nM, 5 min, mean ± S.E.M (n = 3)): Inhibition of ERK1/2 is dependent on the concentration of H89
- Effect on ERK1/2 phosphorylation, PKA inhibitor ([1]; H89 10 μM, 1 hour preincubation, 37°C, AKH 0.1 nM to 10 nM, 5 min, mean ± S.E.M (n = 3)): significantly decreased ERK1/2 phosphorylation
- Effect on AKH-induced ERK1/2 phosphorylation, PKA inhibitor ([1]; H89 20 μM, 1 h, 37°C, AKH 5 nM, 5 min, Fig. 9): significant decrease of AKH-induced phosphorylation of ERK1/2

SMILES: COc1cccc(-c2cc(=O)c3ccccc3o2)c1N [PD98059]
- Effect on magnolol-induced lipolysis [2]: inhibited

SMILES: CC(C)(C)n1nc(-c2ccc(Cl)cc2)c2c(N)ncnc21 [PP2]
- Effect on AKH-induced ERK1/2 activation, Src inhibitor ([1]; PP2 10 μM, 1 h, 37°C, AKH 5 nM, 5 min, Fig. 9, S2): no effect on ERK1/2 activation

SMILES: N#CC(=C(/N)Sc1ccccc1N)/C(C#N)=C(/N)Sc1ccccc1N [U0126]
- Effect on AKH-induced ERK1/2 phosphorylation, MEK inhibitor ([1]; U0126 100 nM, 1 h, 37°C, AKH 5 nM, 5 min, Fig. 9): significant decrease of AKH-induced phosphorylation of ERK1/2
- Effect on lipolysis in the fat body of Bombyx (fat body of Bombyx): blockade of lipolysis in the fat body of Bombyx

SMILES: COc1ccc2c(c1)CC[C@@H]1[C@@H]2CC[C@]2(C)[C@@H](NCCCCCCN3C(=O)C=CC3=O)CC[C@@H]12 [U73122]
- Effect of PLC inhibitor on ERK1/2 activation ([1]; U73122 10 μM, 1 hour, AKH 5 nM, 5 min, Fig. 4A, S1): could not block the activation of ERK1/2

SMILES: COC[C@H]1OC(=O)c2coc3c2[C@@]1(C)C1=C(C3=O)[C@@H]2CCC(=O)[C@@]2(C)C[C@H]1OC(C)=O [Wortmanmin, wortmannin]
- Effect on AKH-induced ERK1/2 activation, PI3K inhibitor ([1]; wortmannin 1 μM, 1 h, 37°C, AKH 5 nM, 5 min, Fig. 9, S2): no effect on ERK1/2 activation

SMILES: COC(=O)C1=C(C)NC(C)=C(C(=O)OC)C1c1ccccc1[N+](=O)[O-] [nifedipine]
- Effect of Ca2+ channel inhibitors on adipokinetic effect of AKH [3]: effectively impair the adipokinetic effect of AKH

SMILES: COc1ccc(CCN(C)CCCC(C#N)(c2ccc(OC)c(OC)c2)C(C)C)cc1OC (stereo not drawn) [verapamil]
- Effect of Ca2+ channel inhibitors on adipokinetic effect of AKH [3]: effectively impair the adipokinetic effect of AKH
